Test results: patent publication US10463594B2, “Cosmetic composition” (AJINOMOTO CO., INC., priority 2012, dated 2019)
Blank lines part the entries; values can stand above or below the molecule they belong to.

Key:
hair [1] = test: Measurement of swelling degree of hair; conditions: 100×(D1−D0)/D0 of hair diameter
Experimental: Hair was immobilized in a concave part of a glass slide for biochemical count having a depth of the concave part of 200 μm (manufactured by NIPPON Genetics Co, Ltd.), a cover glass was placed on the glass slide to cover the concave part, the diameter of the hair was measured 10-14 times, and the mean thereof was calculated (D0). Thereafter, a sample was injected from the clearance between the cover glass and the glass slide, and left standing for 3 min or 5 min. The diameter of the hair was measured 10-14 times, and the mean was calculated (D1).
As the sample, ion exchange water, phosphate buffer (pH 6.2), protein-glutaminase solution (6.2 mg/mL, pH 6.2) and 1% aqueous ammonia (pH 11.8) were used. The swelling degree was calculated from the measured diameters of the hair (D0 and D1) according to the following formula. swelling degree (%)=100×(D1−D0)/D0

hair [2] = test: Observation of hair damage (microscopic images ×400); conditions: 3 min after injection of sample
Experimental: In the test of the above-mentioned 1, the condition of the hair 3 min after injection of ion exchange water, protein-glutaminase solution, or 1% aqueous ammonia was observed.

[3] = system: 3D cultured human skin model: TESTSKIN LSE-high; test: Permeability of FITC-labeled Gly-Gly-Gly to artificial cultured skin; type: cell-based; conditions: protein-glutaminase solution 4 mg/ml, 100 μl, 37° C. 30 min before peptide; measured after 2, 5, 20 hr; versus phosphate buffer (−)
Experimental: Using glycylglycylglycine (hereinafter indicated as “Gly-Gly-Gly”) (manufactured by PEPTIDE INSTITUTE, INC.) as a peptide to be evaluated for skin permeability, the permeability of Gly-Gly-Gly to commercially available artificial cultured skin (3D cultured human skin model: TESTSKIN LSE-high, manufactured by Toyobo Co., Ltd.) was evaluated. Gly-Gly-Gly was labeled with fluorescein by using fluorescein isothiocyanate (FITC-I, manufactured by Chemical-Dojin Co., Ltd.) to enable highly sensitive detection.
The cultured skin is cultured on a polycarbonate membrane on the bottom of a transwell, and set on a 6-well assay plate. […] The permeability was evaluated by measuring the amount of FITC-labeled Gly-Gly-Gly that permeated the cultured skin to move into phosphate buffer (−).
First, a protein-glutaminase solution (4 mg/ml, 100 μl) was added to the top of the cultured skin and incubated at 37° C. for 30 min, after which a FITC-labeled Gly-Gly-Gly sample (100 μl) was added to the top of the cultured skin. After 2, 5, and 20 hr, the amount of FITC-labeled Gly-Gly-Gly that permeated the cultured skin and moved into phosphate buffer (−) was measured. […] The fluorescence intensity was measured under the conditions of exciting wavelength 492 nm and fluorescence wavelength 520 nm. The fluorescence intensity was measured using platereader SpectraMaxM2 (manufactured by Molecular Devices, LLC.).

perm-treated hair = test: Quantification of free ammonia produced by reaction of protein-glutaminase with perm-treated hair; type: biochemical, human; conditions: 37° C., 1 hr
Experimental: Hair of Japanese women in their 20's was perm-treated and used as an experiment sample. The perm treatment included 1) immersing the hair in first perm liquid at 33° C. for 15 min and rinsing the first liquid with tap water at 35-40° C., and 2) immersing the hair in second perm liquid at 33° C. for 15 min and sufficiently rinsing same with tap water at 35-40° C. The continuous operation of 1) and 2) was repeated 4 times, and the hair was washed with 15% sodium laureth sulfate (EMAL E27C; Kao Corporation) and sufficiently rinsed with tap water at 35-40° C. The hair was immersed in a buffer, and treated with occasional stirring at room temperature for 10 min. The hair was combed out, hung while avoiding overlapped hair, and dried in a thermo-hygrostat room (23° C., 40% R.H.).
Using an Ammonia test kit (manufactured by Wako Pure Chemical Industries, Ltd.), the amount of free ammonia produced by reaction of protein-glutaminase with the above-mentioned perm-treated hair was quantified.
The protein-glutaminase solution (2 ml) at a concentration shown in Table 4 was added to a bundle of the above-mentioned perm-treated hair (0.25 g), and the amount of ammonia in a sample after reaction at 37° C. for 1 hr was measured. The amount of ammonia produced was shown as a value after subtraction of the amount of ammonia produced without addition of protein-glutaminase (Comparative Example 4).

Molecule: N [Comparative Example 3, 1% aqueous ammonia]
swelling degree (%) after 3 min (hair [1]; hair left standing in sample for 3 min): 11.1%
swelling degree (%) after 5 min (hair [1]; hair left standing in sample for 5 min): 11.3%
condition of the hair (hair damage) (hair [2]): cuticles on the hair surface were lifted

concentration of protein-glutaminase solution at which it reacted with perm-treated hair (perm-treated hair): not less than 0.01 mg/ml
B1: protein-glutaminase: protein-glutaminase of Chryseobacterium proteolyticum, secretory-expressed in Corynebacterium glutamicum, activated by protease, purified, dissolved in phosphate buffer (protein, listed as Chryseobacterium proteolyticum)
chain: LASVIPDVATLNSLFNQIKNQSCGTSTASSPCITFRYPVDGCYARAHKMRQILMNNGYDCEKQFVYGNLKASTGTCCVAWSYHVAILVSYKNASGVTEKRIIDPSLFSSGPVTDTAWRNACVNTSCGSASVSSYANTAGNVYYRSPSNSYLYDNNLINTNCVLTKFSLLSGCSPSPAPDVSSCGF
permeability of FITC-labeled Gly-Gly-Gly through cultured skin (fluorescence intensity) [3]: improved permeability of peptide
